Data: ChEMBL document CHEMBL1201862, “PubChem BioAssay data set” (2004)
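In this assay, cells in 96-well plates receive the compound at five concentrations for 48 hours. Endpoints are linearly interpolated between the surrounding concentrations. At the GI50, growth is halved.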 Activity calls are given as the source filed them. Cut-off read from the data, not from the text of the source: active = GI50 up to about 1.1 µM and inactive = higher.

Key:
Experiment in all cases: NCI anticancer screen, dose series, 48 h
[1] = test system: OVCAR-3
[2] = test system: COLO 205
[3] = test system: SN12C
[4] = test system: SNB-19
[5] = test system: 786-0
[6] = test system: EKVX
[7] = test system: SW-620
[8] = test system: RXF 393
[9] = test system: SF-295
[10] = test system: SF-268
[11] = test system: HCC 2998
[12] = test system: NCI-H522
[13] = test system: U-251
[14] = test system: NCI-H460
[15] = test system: MOLT-4

Measured: GI50

O=[N+]([O-])c1c(/C=N/Nc2ccccc2)oc(-c2ccc3c(c2)OCO3)c1-c1ccc2c(c1)OCO2
inactive: [1] 5.77 µM | [2] 18.2 µM | [3] 64.3 µM | [4] 70.3 µM | [5] 19.2 µM | [6] 12.4 µM | [7] 11.1 µM | [8] 36.5 µM | [9] 26.9 µM | [10] 3.93 µM | [11] 5.71 µM | [12] 27 µM

NC1=C(NC(=O)Cc2ccc(F)cc2)C(=O)c2ccccc2C1=O
inactive: [1] 26.4 µM | [2] 68.2 µM | [3] > 100 µM | [13] 13.9 µM | [14] > 82.2 µM | [4] 23.1 µM | [5] 37.7 µM | [6] > 100 µM | [7] > 100 µM | [8] 24.6 µM | [9] 33.3 µM | [10] 39.7 µM | [11] > 100 µM | [15] > 67.9 µM | [12] 22.7 µM

c1ccc(C2=NN3CN(N2)c2ccccc2OCCCOc2ccccc23)cc1
inactive: [1] > 100 µM | [2] > 100 µM | [3] > 100 µM | [13] > 100 µM | [14] > 100 µM | [4] > 100 µM | [5] > 100 µM | [6] > 100 µM | [7] > 100 µM | [8] > 100 µM | [9] > 100 µM | [10] > 100 µM | [15] 63.8 µM | [12] 34.7 µM

O=C(OCC1CO1)c1cccs1 (stereo not drawn)
inactive: [1] > 100 µM | [2] > 100 µM | [3] > 100 µM | [14] > 100 µM | [4] > 100 µM | [5] > 100 µM | [6] > 100 µM | [7] > 100 µM | [8] > 100 µM | [9] > 100 µM | [10] > 100 µM | [11] > 100 µM | [15] > 100 µM | [12] 17 µM

CSc1ccc(C2OC(=O)c3ccccc32)c2ccccc12 (stereo not drawn)
inactive: [2] > 100 µM | [3] > 100 µM | [13] 37.3 µM | [14] > 100 µM | [4] > 100 µM | [5] > 100 µM | [6] > 100 µM | [7] > 100 µM | [8] > 100 µM | [9] > 100 µM | [10] > 100 µM | [11] 70.8 µM | [15] 32.3 µM | [12] 51.8 µM

Cn1cnc([N+](=O)[O-])c1Sc1nc2ccccc2s1
inactive: [1] 3.7 µM | [2] 3.33 µM | [3] 4.33 µM | [13] 11.7 µM | [14] 12 µM | [4] 14.5 µM | [5] 11.8 µM | [6] 3.96 µM | [7] 4 µM | [8] 2.15 µM | [9] 20.8 µM | [10] 7.19 µM | [11] 10.2 µM | [15] 1.89 µM
